The assay has as its target Tyrosine-protein kinase Lck (Homo sapiens, UniProt P06239). Briefly: Tested in vitro for the inhibition of protein-tyrosine kinase p56lck using angiotensin I (1.2 mM) and [gamma-32P]-ATP (50 µM).
Chain of Tyrosine-protein kinase Lck (P06239 whole entry): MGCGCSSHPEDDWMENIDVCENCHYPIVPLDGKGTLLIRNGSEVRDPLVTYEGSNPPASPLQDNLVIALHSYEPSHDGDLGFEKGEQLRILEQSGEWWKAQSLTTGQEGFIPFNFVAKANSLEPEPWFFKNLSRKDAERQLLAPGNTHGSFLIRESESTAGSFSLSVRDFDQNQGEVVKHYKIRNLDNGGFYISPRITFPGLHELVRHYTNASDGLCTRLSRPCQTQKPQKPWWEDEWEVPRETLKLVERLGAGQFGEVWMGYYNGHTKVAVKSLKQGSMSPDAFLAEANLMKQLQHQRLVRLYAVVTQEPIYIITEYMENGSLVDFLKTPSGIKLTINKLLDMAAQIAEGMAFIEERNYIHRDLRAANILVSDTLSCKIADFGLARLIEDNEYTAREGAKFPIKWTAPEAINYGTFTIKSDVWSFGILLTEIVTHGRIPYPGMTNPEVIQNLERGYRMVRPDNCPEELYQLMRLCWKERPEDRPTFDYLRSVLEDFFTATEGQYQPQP
The term IC50 denotes the concentration at which inhibition is half-maximal. Lower therefore signals inhibition by little substance. In turn, `Oc1cccc(/C=C/c2cccc(O)c2)c1` had an IC50 of 234 µM.

`C(=C\c1cc(OCc2ccccc2)cc(OCc2ccccc2)c1)/c1ccc(OCc2ccccc2)cc1` came in with an IC50 of more than 2030 µM.

As for `C(=C\c1ccc(OCc2ccccc2)c(OCc2ccccc2)c1)/c1ccc(OCc2ccccc2)cc1`, the IC50 is more than 2030 µM.

`C(=C\c1cc(OCc2ccccc2)cc(OCc2ccccc2)c1)/c1cccc(OCc2ccccc2)c1` came in with an IC50 of more than 2030 µM.

In turn, `C(=C\c1cc(OCc2ccccc2)cc(OCc2ccccc2)c1)/c1ccccc1` had an IC50 of more than 2030 µM.

Take `Oc1cc(O)cc(CCc2cc(O)cc(O)c2)c1`: the IC50 amounted to 487 µM.

The compound `C(=C\c1ccc(OCc2ccccc2)c(OCc2ccccc2)c1)/c1ccccc1` had an IC50 of more than 2030 µM.

The compound `Oc1cc(O)cc(/C=C/c2cc(O)cc(O)c2)c1` yielded an IC50 of 16 µM.

With `Oc1cccc(/C=C/c2ccc(O)c(O)c2)c1`, half-maximal inhibition (IC50) was put at 58 µM.

As for `C(=C\c1ccc(OCc2ccccc2)c(OCc2ccccc2)c1)/c1cccc(OCc2ccccc2)c1`, the IC50 was more than 2030 µM.

Compound `Oc1ccc(/C=C/c2ccc(O)c(O)c2)cc1` yielded an IC50 of 19 µM.

`Oc1cc(O)cc(CCc2ccc(O)c(O)c2)c1` displayed an IC50 of 1560 µM.

Compound `Oc1ccc(/C=C/c2ccc(O)c(O)c2)cc1O` showed an IC50 of 74 µM.

Take `Oc1cccc(/C=C/c2cc(O)cc(O)c2)c1`: 17 µM corresponded to half-maximal inhibition (IC50).

Consider `Oc1ccc(/C=C/c2ccccc2)cc1O` [(E)-3,4-STILBENDIOL], for which the midpoint of inhibition, the IC50, lay at 203 µM.

As for `Oc1cc(O)cc(/C=C/c2ccccc2)c1` [PINOSYLVIN], it took 193 µM to reach half-maximal inhibition (IC50).

With `Oc1ccc(/C=C/c2cc(O)cc(O)c2)cc1` [RESVERATROL], inhibition was half-maximal at 112 µM (IC50).

The values above are taken from ChEMBL document CHEMBL1126838 (J Med Chem, 1993).
